# Reference: PubChem BioAssay AID248 (DTP/NCI, 2004)
# Several values for one entry are separate records, joined by “and”; a condition that tells them apart may be missing. Equal entries are not always repeated. Inconclusive results and toxic doses are left out.
# System: L1210 leukemia ip in BDF1 mice, survival T/C
# Experiment: NCI In Vivo Anticancer Drug Screen. Data for tumor model L1210 Leukemia (intraperitoneal) in B6D2F1 (BDF1) mice
# Conditions: endpoint: mean survival time, higher = longer survival
# Summary of the method: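 Transplantable tumor model; survival measured in treated vs vehicle control mice. Value = treated/control.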
# [1] = dose: 100.0 mg/kg/injection, schedule: Q01DX009 (ip), vehicle: saline
# [2] = dose: 200.0 mg/kg/injection, schedule: Q01DX009 (ip), vehicle: saline
# [3] = dose: 400.0 mg/kg/injection, schedule: Q01DX009 (ip), vehicle: saline
# [4] = dose: 100.0 mg/kg/injection, schedule: Q04DX003 (ip), vehicle: saline with Tween-80
# [5] = dose: 200.0 mg/kg/injection, schedule: Q01DX009 (ip), vehicle: saline with Tween-80
# [6] = dose: 200.0 mg/kg/injection, schedule: Q04DX003 (ip), vehicle: saline with Tween-80
# [7] = dose: 100.0 mg/kg/injection, schedule: Q01DX001 (ip), vehicle: carboxymethylcellulose (CMC)
# [8] = dose: 200.0 mg/kg/injection, schedule: Q01DX001 (ip), vehicle: carboxymethylcellulose (CMC)
# [9] = dose: 400.0 mg/kg/injection, schedule: Q01DX001 (ip), vehicle: carboxymethylcellulose (CMC)
# [10] = dose: 100.0 mg/kg/injection, schedule: Q01DX001 (ip), vehicle: saline
# [11] = dose: 100.0 mg/kg/injection, schedule: Q04DX003 (ip), vehicle: saline
# [12] = dose: 200.0 mg/kg/injection, schedule: Q01DX001 (ip), vehicle: saline
# [13] = dose: 200.0 mg/kg/injection, schedule: Q04DX003 (ip), vehicle: saline
# [14] = dose: 400.0 mg/kg/injection, schedule: Q01DX001 (ip), vehicle: saline
# [15] = dose: 400.0 mg/kg/injection, schedule: Q04DX003 (ip), vehicle: saline
# [16] = dose: 100.0 mg/kg/injection, schedule: Q01DX009 (ip), vehicle: Klucel (hydroxypropylcellulose) (HPC)
# [17] = dose: 200.0 mg/kg/injection, schedule: Q01DX009 (ip), vehicle: Klucel (hydroxypropylcellulose) (HPC)
# [18] = dose: 400.0 mg/kg/injection, schedule: Q01DX009 (ip), vehicle: Klucel (hydroxypropylcellulose) (HPC)
smiles,measurement,setting,value
O=C(CCl)Nc1cc(Cl)ccc1N1CCCCC1,T/C,"dose: 100.0 mg/kg/injection, schedule: Q01DX009 (ip), vehicle: acetone",100 % of control
same,T/C,"dose: 200.0 mg/kg/injection, schedule: Q01DX009 (ip), vehicle: acetone",91 % of control
same,T/C,"dose: 400.0 mg/kg/injection, schedule: Q01DX009 (ip), vehicle: acetone",91 % of control
O=C1CC(NCCO)C(=O)NN1 (stereo not drawn),T/C,[1],101 % of control
same,T/C,[2],97 % of control
same,T/C,[3],100 % of control
CCCN(C)N=Nc1ccccc1C(N)=O,T/C,"dose: 44.0 mg/kg/injection, schedule: Q01DX009 (ip), vehicle: saline with Tween-80",108 % of control
same,T/C,"dose: 50.0 mg/kg/injection, schedule: Q01DX009 (ip), vehicle: saline with Tween-80",113 % of control
same,T/C,"dose: 50.0 mg/kg/injection, schedule: Q04DX003 (ip), vehicle: saline with Tween-80",110 % of control
same,T/C,"dose: 66.0 mg/kg/injection, schedule: Q01DX009 (ip), vehicle: saline with Tween-80",108 % of control
same,T/C,"dose: 100.0 mg/kg/injection, schedule: Q01DX001 (ip), vehicle: other",109 % of control
same,T/C,[4],111 % of control
same,T/C,"dose: 150.0 mg/kg/injection, schedule: Q01DX009 (ip), vehicle: saline with Tween-80",153 % of control
same,T/C,"dose: 200.0 mg/kg/injection, schedule: Q01DX001 (ip), vehicle: other",113 % of control
same,T/C,[5],120 % of control
same,T/C,[6],118 % of control
C[N+](C)(C)c1ncnc2[n-]cnc12,T/C,"dose: 50.0 mg/kg/injection, schedule: Q01DX015 (ip), vehicle: saline",110 % of control
[O]=[Cr](=[O])([OH])[O][Cr](=[O])(=[O])[OH],T/C,"dose: 6.25 mg/kg/injection, schedule: Q01DX009 (ip), vehicle: saline",104 % of control
same,T/C,"dose: 12.5 mg/kg/injection, schedule: Q01DX009 (ip), vehicle: saline",97 % of control
same,T/C,"dose: 25.0 mg/kg/injection, schedule: Q04DX003 (ip), vehicle: saline",108 % of control
CN(C)N=Nc1ccccc1C(=O)NN,T/C,"dose: 18.75 mg/kg/injection, schedule: Q01DX009 (ip), vehicle: Klucel (hydroxypropylcellulose) (HPC)",94 % of control and 110 % of control
same,T/C,"dose: 37.5 mg/kg/injection, schedule: Q01DX009 (ip), vehicle: Klucel (hydroxypropylcellulose) (HPC)",105 % of control and 107 % of control
same,T/C,"dose: 50.0 mg/kg/injection, schedule: Q01DX001 (ip), vehicle: carboxymethylcellulose (CMC)",101 % of control
same,T/C,"dose: 75.0 mg/kg/injection, schedule: Q01DX009 (ip), vehicle: Klucel (hydroxypropylcellulose) (HPC)",100 % of control and 115 % of control
same,T/C,[7],101 % of control
same,T/C,"dose: 150.0 mg/kg/injection, schedule: Q01DX009 (ip), vehicle: Klucel (hydroxypropylcellulose) (HPC)",107 % of control
same,T/C,[8],101 % of control
CNC(=O)NCC1OC(n2cnc3c(N)ncnc32)C(O)C1O (stereo not drawn),T/C,"dose: 100.0 mg/kg/injection, schedule: Q01DX001 (ip), vehicle: Klucel (hydroxypropylcellulose) (HPC)",98 % of control
same,T/C,"dose: 200.0 mg/kg/injection, schedule: Q01DX001 (ip), vehicle: Klucel (hydroxypropylcellulose) (HPC)",98 % of control
same,T/C,"dose: 400.0 mg/kg/injection, schedule: Q01DX001 (ip), vehicle: Klucel (hydroxypropylcellulose) (HPC)",95 % of control
O=C1OC(c2cccc(Cl)c2)=N/C1=C\C=C/c1ccccc1,T/C,[7],95 % of control
same,T/C,"dose: 100.0 mg/kg/injection, schedule: Q01DX009 (ip), vehicle: carboxymethylcellulose (CMC)",89 % of control and 92 % of control
same,T/C,"dose: 200.0 mg/kg/injection, schedule: Q01DX009 (ip), vehicle: carboxymethylcellulose (CMC)",87 % of control and 92 % of control
same,T/C,[9],93 % of control
COc1cc2c3cc1Oc1c(OC)c(OC)cc4c1C(Cc1ccc(OC(C)=O)c(c1)Oc1ccc(cc1)CC3N(C)CC2)N(C)CC4 (stereo not drawn),T/C,[4],108 % of control
same,T/C,[6],101 % of control
same,T/C,"dose: 400.0 mg/kg/injection, schedule: Q04DX003 (ip), vehicle: saline with Tween-80",103 % of control
C#CCOC(=O)CCC(=O)OCC#C,T/C,[10],103 % of control
same,T/C,[1],94 % of control
same,T/C,[11],94 % of control
same,T/C,[12],100 % of control
same,T/C,[2],97 % of control
same,T/C,[13],96 % of control
same,T/C,[14],100 % of control
same,T/C,[3],94 % of control
same,T/C,[15],98 % of control
COC(=O)c1c(C(=O)c2ccccc2)nn2c(-c3ccccc3)c(-c3ccccc3)c(-c3ccccc3)c(-c3ccccc3)c12,T/C,[12],86 % of control
same,T/C,[14],93 % of control
CC(c1ccccc1)n1cnc2c(Cl)ncnc21 (stereo not drawn),T/C,[10],98 % of control
same,T/C,[12],101 % of control
same,T/C,[14],110 % of control
CSc1ccc(NC(=O)SCc2ccccc2)cc1,T/C,[16],97 % of control
same,T/C,[17],95 % of control
same,T/C,[18],95 % of control
CN(C)c1ccc(/C=N/NC(=O)c2cnc3ccccc3c2)cc1,T/C,"dose: 100.0 mg/kg/injection, schedule: Q04DX002 (ip), vehicle: saline with Tween-80",102 % of control
same,T/C,"dose: 200.0 mg/kg/injection, schedule: Q04DX002 (ip), vehicle: saline with Tween-80",97 % of control
same,T/C,"dose: 400.0 mg/kg/injection, schedule: Q04DX002 (ip), vehicle: saline with Tween-80",94 % of control
CC(C)(C)c1cc(/C=N/NC(=O)COCC(=O)N/N=C/c2cc(C(C)(C)C)c(O)c(C(C)(C)C)c2)cc(C(C)(C)C)c1O,T/C,[16],95 % of control
same,T/C,[17],103 % of control
same,T/C,[18],92 % of control
CCC1=C(c2cc(Cl)c3ccccc3c2OCC(=O)O)OC(CC)(C(=O)c2cc(Cl)c3ccccc3c2OCC(=O)O)CC1 (stereo not drawn),T/C,"dose: 30.0 mg/kg/injection, schedule: Q01DX009 (ip), vehicle: saline with Tween-80",96 % of control
same,T/C,"dose: 31.0 mg/kg/injection, schedule: Q01DX Z (ip), vehicle: other",92 % of control
same,T/C,"dose: 60.0 mg/kg/injection, schedule: Q01DX009 (ip), vehicle: saline with Tween-80",94 % of control
same,T/C,"dose: 62.0 mg/kg/injection, schedule: Q01DX Z (ip), vehicle: other",95 % of control
same,T/C,[4],103 % of control
same,T/C,"dose: 120.0 mg/kg/injection, schedule: Q01DX009 (ip), vehicle: saline with Tween-80",92 % of control
same,T/C,[6],93 % of control
same,T/C,"dose: 240.0 mg/kg/injection, schedule: Q01DX009 (ip), vehicle: saline with Tween-80",92 % of control
N=C([Se])c1cn(C2OC(CO)C(O)C2O)c2ncnc(N)c12 (stereo not drawn),T/C,"dose: 0.09 mg/kg/injection, schedule: Q01DX009 (ip), vehicle: saline",109 % of control
same,T/C,"dose: 0.19 mg/kg/injection, schedule: Q01DX005 (ip), vehicle: saline",119 % of control
same,T/C,"dose: 0.19 mg/kg/injection, schedule: Q01DX009 (ip), vehicle: saline",108 % of control
same,T/C,"dose: 0.39 mg/kg/injection, schedule: Q01DX005 (ip), vehicle: saline",117 % of control
same,T/C,"dose: 0.39 mg/kg/injection, schedule: Q01DX009 (ip), vehicle: saline",104 % of control
same,T/C,"dose: 0.78 mg/kg/injection, schedule: Q01DX005 (ip), vehicle: saline",106 % of control
O=C(/C=C(/c1ccccc1)P(=O)(c1ccccc1)c1ccccc1)c1ccccc1,T/C,"dose: 100.0 mg/kg/injection, schedule: Q01DX009 (ip), vehicle: saline with Tween-80",86 % of control
same,T/C,[5],89 % of control
same,T/C,"dose: 400.0 mg/kg/injection, schedule: Q01DX009 (ip), vehicle: saline with Tween-80",88 % of control
CNC(=O)Oc1ccc(/C=N/NC(=O)c2ccncc2)cc1OC,T/C,[16],97 % of control
same,T/C,[17],97 % of control
CC(=O)Nc1ccc(C(=O)/C=C/C(=O)O)c(O)c1,T/C,[11],98 % of control
same,T/C,[13],100 % of control
same,T/C,[15],100 % of control
COc1ccc2c(c1)CN(S(=O)(=O)c1ccc(C)cc1)c1ccccc1C2=O,T/C,[1],89 % of control
same,T/C,[2],96 % of control
same,T/C,[3],89 % of control
NC(=N\C1=NCCO1)/C(N)=N/C1=NCCO1,T/C,[11],109 % of control
same,T/C,[13],107 % of control
same,T/C,[15],97 % of control
O=[N+]([O-])c1cc(N(c2ccccc2)c2ccccc2)ccc1Cl,T/C,[7],97 % of control
same,T/C,[8],97 % of control
same,T/C,[9],95 % of control
CCCCn1cnc2ccc3[nH]c(C)nc3c2c1=O,T/C,"dose: 12.5 mg/kg/injection, schedule: Q01DX001 (ip), vehicle: carboxymethylcellulose (CMC)",104 % of control
same,T/C,"dose: 25.0 mg/kg/injection, schedule: Q01DX001 (ip), vehicle: carboxymethylcellulose (CMC)",96 % of control
